Measured values from patent US10960010B2, “Pharmaceutical compositions for sustained or delayed release” (INTRA-CELLULAR THERAPIES, INC., priority 2013, dated 2021).
Entries after “also recorded” stand apart in the source; their conditions may differ.

System: patients with schizophrenia
Experiment: Randomized, double-blind, placebo-controlled in-patient trial, 4-week treatment, PANSS
Format: in vivo, human
Method: For purposes of this example, Compound A refers to the compound of Formula I wherein X is —N(CH3)— and Y is —C(O)—; tosylate salt unless otherwise indicated. A randomized, double-blind, placebo-controlled, in-patient trial is performed. Four treatment arms, 4-week treatment duration, QAM dosing are performed as follows: 60 mg of Compound A; 120 mg of Compound A; positive control (4 mg Risperidone); and placebo. The primary outcome is measured by the change from baseline on Positive and Negative Syndrome Scale (PANSS) Total Score at Day 28. Secondary measures explore key differentiating features.
60 mg Compound A Treatment Arm receives 60 mg of Compound A once daily for 28 days. 120 mg Compound A Treatment Arm receives 60 mg Compound A on Study Day 1 followed by 120 mg Compound A once daily for 27 days. Risperidone Treatment Arm receives 2 mg risperidone on Study Day 1 followed by 4 mg risperidone once daily for 27 days. Placebo Treatment Arm receives placebo once daily for 28 days. All doses are administered in the morning with breakfast.
Key inclusion criteria: Clinical diagnosis of schizophrenia according to DSM-IV-TR is confirmed by modified SCID-CT. Screening Brief Psychiatric […] Scale (BPRS) score of 40 or greater (18-items scored 1-7 each). Minimum score of 4 or higher on at least two of the following positive items: suspiciousness, conceptual disorganization, hallucinatory behavior, unusual thought content. Current exacerbated episode lasts no longer than 4 weeks. Sufficient history and/or independent reporter must verify that current state is an exacerbated state for the individual. Prior response to antipsychotic therapy within the last 5 years, defined as clinically significant and documented decrease in delusions and/or hallucinations during a documented exacerbated episode (and at least 3 months prior exposure to antipsychotic therapy).
The trial has a high subject completion rate (74%) compared to an average of 62% completion rate in other 4-week antipsychotic trials. 19% discontinues during the study treatment period (during Day 1-28). 7% completes study treatment through Day 28, but are lost to follow up.

[1] = 60 mg, sub-group of patients with depression at baseline

## Cc1nc2n(c(=O)c1CCN1CCC(c3noc4cc(F)ccc34)CC1)CCCC2 [Risperidone, reference compound]
4 mg Risperidone
  Effect Size (Total PANSS): 0.4
  LS Mean Difference from Placebo (Total PANSS, Day 28): −6.0
4 mg Risperidone (2 mg on Day 1, then 4 mg once daily 27 days), N = 75
  LS Mean Change from Baseline on Day 28 Total PANSS (±SE) using MMRM/ITT: −13.4 ± 1.7
Risperidone arm, sub-group of patients with depression at baseline
  total PANSS and negative symptoms compared with the Compound of Formula I: less effective

## CN1CCN2c3c(cccc31)[C@@H]1CN(CCCC(=O)c3ccc(F)cc3)CC[C@@H]12 [Compound A]
60 mg
  Prosocial PANSS Factor change from baseline compared to placebo: significantly improve
  general psychopathology subscale of the PANSS: statistically significantly improves
  items on the negative symptom and general psychopathology subscales consistent with improved social function: improves certain items
  positive symptom subscale of the PANSS: statistically significantly improves
60 mg Compound A
  Effect Size (Total PANSS): 0.4
  LS Mean Difference from Placebo (Total PANSS, Day 28): −5.8
60 mg Compound A (tosylate) once daily in the morning, 28 days, N = 76
  LS Mean Change from Baseline on Day 28 Total PANSS (±SE) using MMRM/ITT: −13.2 ± 1.7
60 mg once daily in the morning, after 28 days of treatment
  PANSS total score, result in words: demonstrates antipsychotic efficacy; also recorded: statistically significant and clinically meaningful decrease
60 mg once daily, 28 days
  hyperprolactinemia, EPS/akathisia, weight gain, cardiovascular safety: does not cause hyperprolactinemia, EPS/akathisia, weight gain or cardiovascular safety issues
[1]
  negative symptoms (PANSS Negative Symptom Sub-Scale): robustly improves
  total PANSS: robustly improves
60 mg, subgroup of patients with prominent negative symptoms at baseline
  negative symptoms (PANSS Negative Symptom Sub-Scale): improves negative symptoms qualitatively
60 mg, subgroup with CDSS score >6 at baseline
  depression as measured by the CDSS: significantly reduces depression
120 mg Compound A
  Effect Size (Total PANSS): 0.1
  LS Mean Difference from Placebo (Total PANSS, Day 28): −0.9
120 mg Compound A (60 mg on Day 1, then 120 mg once daily 27 days), N = 80
  LS Mean Change from Baseline on Day 28 Total PANSS (±SE) using MMRM/ITT: −8.3 ± 1.7
